Measurements as given in patent US20040034206A1, “Combination therapy for RNA virus infections involving ribavirin and IMPDH inhibitors” (priority 2002, published 2004).
Like-named read-outs stand apart in the source and are kept apart here.

What was measured:
[1] = system: HCV subgenomic replicon (clone 16) in Huh-7 cells; format: cell-based, Hepatitis C Virus
Excerpt: We examined the mutagenic effect of ribavirin and other IMPDH inhibitors on HCV using the recently developed HCV replicon system. See German Patent No. DE19915178A1 to Bartenschlager, the disclosure of which is hereby incorporated by reference in its entirety. In the replicon system, an autonomously replicating clone of HCV comprising HCV 5′-NTR (NTR non translated region), NS3, NS4A, NS4B, NS5A, NS5B and a neomycin selectable marker gene that is linked to the HCV genes is inserted into human hepatoma cell line known as Huh-7 cells. The HCV-RNAs produced by the autonomously replicating clone of HCV in the Huh-7 cells are extracted and retransfected into naïve Huh-7 cells to evaluate the replication competence and efficiency of the HCV-RNA. Therefore, the effect of anti-viral treatments on the HCV-RNAs produced may be evaluated by growing the replicon cells in the presence or absence of such anti-viral treatments, then extracting the replicon RNA from treated cells and transfecting it into naive Huh 7 cells and measuring colony formation. The effect of the combination of ribavirin, and IMPDH inhibitors on HCV replication in vitro was evaluated using the replicon system as described below.
HCV Cell Culture System. Human hepatoma cell line Huh-7 cells were grown in Dulbecco's modified minimal essential medium (DMEM, Cellgro) supplemented with 10% fetal bovine serum, 4 mM L-glutamine, non-essential amino acids, 10 mM HEPES, 0.075% sodium bicarbonate, 100 U/ml penicillin and 100 ug/ml streptomycin, and 1 mM sodium pyruvate. HCV subgenomic replicon (clone 16, containing NS5A S1I791 adaptive mutation as described in Blight et al., Science 290:1972 (2000)) was constructed by Schering-Plough Research Institute as described by R. Bartenschlager. See Lohmann, et al., Science 285:5424 (2000). The replicon-bearing Huh-7 cells were maintained in the same media as described above with 0.5 mg/ml G418 (Geneticin, Gibco-BRL).
HCV RNA Replicon Copy Number measurement by Taqman assays. Replicon cells were seeded at 3000 cells per well in 96-well Bio-coated plates (Becton Dickinson) and allowed to adhere overnight. The next day the culture medium was replaced with 5% serum medium containing the experimental compound. After 72 hours the plate was harvested by aspirating medium, washing with PBS twice, and putting in […] cell lysis buffer (Ambion, catalog No. 8722). The plate was then heated at 75° C. for 5 min followed by freezing at −70° C. for 10 min. The cell lysate was then measured for HCV replicon copy number by one-step real-time RT-PCR (Taqman assay) using an ABI 7700 instrument. The primers, which correspond to HCV NS5B, are: forward, 5′-[…]-3′ (SEQ ID NO: 1), and reverse, 5′-[…]-3′ (SEQ ID NO: 2). The double fluorescence-labeled probe (5′-[…]-3′) (SEQ ID NO: 3) was purchased from Applied Biosystems (part No. P6448-6464). The cellular GAPDH (glyceraldehyde 3-phosphate dehydrogenase) mRNA from the same cell lysate was used as an internal control for cell number and metabolic status (primers/probes purchased from Perkin Elmer, part No. 4310859). Every experiment was performed in triplicate. The entire study was conducted independently two times.
Specific Colony Formation Efficiency (SCFE) determination. Replicon cells were loaded with compound(s) for 10 days under complete DMEM (without G418), with medium changes every 2-3 days. The total cytoplasmic RNA was extracted using RNA Easy kit from Qiagen (catalog No. 74104) and the RNA concentration was determined by absorbance at 260 nm. HCV replicon copy number in each RNA sample was determined by Taqman assay using a standard curve. For electroporation of RNA obtained from compound-treated replicon cells, 8 μg of total RNA suspended in 50 μl PBS was mixed with 50 μl suspension of 2×10^6 Huh-7 cells in a 0.1 cm cuvette (Bio-Rad, catalog No. 165-2089). As a control, wild type replicon RNA was serially diluted with total RNA from naïve Huh-7 cells.

[2] = human, in vivo; cited from earlier work
[3] = target: inosine monophosphate dehydrogenase (IMPDH); conditions: cited from J. Jain et al.; cited from earlier work
[4] = system: Hepatitis C Virus; conditions: IFN-α monotherapy, chronic HCV infection, depending on genotype; cited from earlier work

**Q.** Which results are given for NC(=O)c1ncn([C@@H]2O[C@H](CO)[C@@H](O)[C@H]2O)n1 [ribavirin, 1-beta-D-Ribofuranosyl-1H-1,2,4-triazole-3-carboxamide]?
**A.** No. of Colonies ([1]; 10 μM ribavirin): 650; Replicon Copy No. ([1]; 10 μM ribavirin): 14 copies X 10^7/8 μg total RNA; SCFE (Specific Colony Formation Efficiency) ([1]; 10 μM ribavirin): 480 colonies/10^8 HCV RNA genomes; No. of Colonies ([1]; 50 μM ribavirin): 420; Replicon Copy No. ([1]; 50 μM ribavirin): 12 copies X 10^7/8 μg total RNA; SCFE (Specific Colony Formation Efficiency) ([1]; 50 μM ribavirin): 360 colonies/10^8 HCV RNA genomes; No. of Colonies ([1]; 100 μM ribavirin): 110; Replicon Copy No. ([1]; 100 μM ribavirin): 6 copies X 10^7/8 μg total RNA; SCFE (Specific Colony Formation Efficiency) ([1]; 100 μM ribavirin): 200 colonies/10^8 HCV RNA genomes; reduction in the fitness of the replicon (specific colony formation efficiency) ([1]; 100 μM ribavirin alone): ~4 fold; patients with reduction in hemoglobin of greater than 4 g/dl [2]: 15.7%

**Q.** Which “No. of Colonies” value ([1]; 10 μM Guan.) does the source give for Nc1nc2c(ncn2[C@@H]2O[C@H](CO)[C@@H](O)[C@H]2O)c(=O)[nH]1 [Guan., guanosine] here?
**A.** 210

**Q.** And the “Replicon Copy No.” value ([1]; 10 μM Guan.)?
**A.** 12 copies X 10^7/8 μg total RNA

**Q.** What about the “SCFE (Specific Colony Formation Efficiency)” value ([1]; 10 μM Guan.) of the same compound?
**A.** 180 colonies/10^8 HCV RNA genomes

**Q.** With COc1cc(NC(=O)Nc2cccc(CNC(=O)O[C@H]3CCOC3)c2)ccc1-c1cnco1 [IMPDH-I, (S)-N-3-[3-(3-methoxy-4-oxazol-5-yl-phenyl)ureido]-benzylcarbamic acid tetrahydrofuran-3-yl-ester] as the compound, how does the Ki [3] read?
**A.** ~0.01 µM

**Q.** And the “No. of Colonies” value ([1]; 100 nM IMPDH-I)?
**A.** 370

**Q.** What about the “Replicon Copy No.” value ([1]; 100 nM IMPDH-I) of the same compound?
**A.** 10 copies X 10^7/8 μg total RNA

**Q.** And the “SCFE (Specific Colony Formation Efficiency)” value ([1]; 100 nM IMPDH-I)?
**A.** 360 colonies/10^8 HCV RNA genomes

**Q.** And the “effect on the replicon” value ([1]; 100 nM IMPDH-I alone, Example 5)?
**A.** only a marginal effect

**Q.** Which results are given for COc1c(C)c2c(c(O)c1C/C=C(\C)CCC(=O)O)C(=O)OC2 [MPA, mycophenolic acid]?
**A.** No. of Colonies ([1]; 2 μM MPA): 470; Replicon Copy No. ([1]; 2 μM MPA): 9 copies X 10^7/8 μg total RNA; SCFE (Specific Colony Formation Efficiency) ([1]; 2 μM MPA): 510 colonies/10^8 HCV RNA genomes

**Q.** With interferon-alpha as the compound, how does the response rate [4] read?
**A.** about 25%
